{"source": "patent US5618928A", "about": "“Triazenyl-substituted phenyl pyrimidines and their use in therapy” (British Technology Group Limited, priority 1992, dated 1997)", "origin": "cited, not measured here", "key": {"[1]": {"conditions": "in combination with sulphamethoxazole, AIDS patients; cited from earlier work"}, "[2]": {"test_system": "dihydrofolate reductase (DHFR)", "conditions": "in words, background; cited from earlier work"}}}
{"smiles": "COc1cc(Cc2cnc(N)nc2N)cc(OC)c1OC", "note": "[trimethoprim]", "values": [{"measurement": "adverse reactions", "setting": "[1]", "value": "high percentage of adverse reactions in AIDS patients"}]}
{"smiles": "COc1cc(NCc2ccc3nc(N)nc(N)c3c2C)cc(OC)c1OC", "note": "[trimetrexate]", "values": [{"measurement": "potency", "setting": "[2]", "value": "high potency"}, {"measurement": "selectivity", "setting": "[2]", "value": "poor selectivity"}]}
